Measured values as given in patent US9422297B2, “Tricyclic compounds having cytostatic and/or cytotoxic activity and methods of use thereof” (Duquesne University of the Holy Ghost, priority 2007, dated 2016).
Where two headings read alike, the source gives them in different places.

Key:
[1] = biological target: EGFR kinase (Homo sapiens (Human), UniProt P00533); test: EGFR kinase inhibition; type: biochemical
[2] = biological target: PDGFR-β kinase (Homo sapiens (Human), UniProt P09619); test: PDGFR-β kinase inhibition; type: biochemical
[3] = A431 cytotoxicity assay; type: cell-based; details: human, A431 cells
[4] = biological target: Flk-1 kinase (Homo sapiens (Human), UniProt P35968); test: Flk-1 kinase inhibition; type: biochemical; details: Table 3
[5] = biological target: VEGFR-2 kinase (Homo sapiens (Human), UniProt P35968); test: VEGFR-2 kinase inhibition; type: biochemical; details: Table 1
[6] = biological target: Thymidylate synthase (Homo sapiens (Human), UniProt P04818); test: Thymidylate synthase inhibition, human; type: biochemical; details: Human TS
[7] = biological target: Thymidylate synthase (Escherichia coli (strain K12), UniProt P0A884); test: Thymidylate synthase inhibition, E. coli; type: biochemical
[8] = tested on: COLO-205 metastatic human colon cancer cells; test: COLO-205 tumors implanted in athymic mice; type: in vivo
[9] = biological target: Thymidylate synthase (Toxoplasma gondii, UniProt Q07422); test: Thymidylate synthase inhibition, Toxo; type: biochemical
[10] = tested on: CAM angiogenesis; test: CAM assay, inhibition of angiogenesis; type: in vivo; details: Table 3
[11] = Table 3, read-out: PDGFR-β kinase
[12] = athymic mice, 25 mg/kg 3× weekly

PDGFR-β kinase, sequence (P09619 33-1106): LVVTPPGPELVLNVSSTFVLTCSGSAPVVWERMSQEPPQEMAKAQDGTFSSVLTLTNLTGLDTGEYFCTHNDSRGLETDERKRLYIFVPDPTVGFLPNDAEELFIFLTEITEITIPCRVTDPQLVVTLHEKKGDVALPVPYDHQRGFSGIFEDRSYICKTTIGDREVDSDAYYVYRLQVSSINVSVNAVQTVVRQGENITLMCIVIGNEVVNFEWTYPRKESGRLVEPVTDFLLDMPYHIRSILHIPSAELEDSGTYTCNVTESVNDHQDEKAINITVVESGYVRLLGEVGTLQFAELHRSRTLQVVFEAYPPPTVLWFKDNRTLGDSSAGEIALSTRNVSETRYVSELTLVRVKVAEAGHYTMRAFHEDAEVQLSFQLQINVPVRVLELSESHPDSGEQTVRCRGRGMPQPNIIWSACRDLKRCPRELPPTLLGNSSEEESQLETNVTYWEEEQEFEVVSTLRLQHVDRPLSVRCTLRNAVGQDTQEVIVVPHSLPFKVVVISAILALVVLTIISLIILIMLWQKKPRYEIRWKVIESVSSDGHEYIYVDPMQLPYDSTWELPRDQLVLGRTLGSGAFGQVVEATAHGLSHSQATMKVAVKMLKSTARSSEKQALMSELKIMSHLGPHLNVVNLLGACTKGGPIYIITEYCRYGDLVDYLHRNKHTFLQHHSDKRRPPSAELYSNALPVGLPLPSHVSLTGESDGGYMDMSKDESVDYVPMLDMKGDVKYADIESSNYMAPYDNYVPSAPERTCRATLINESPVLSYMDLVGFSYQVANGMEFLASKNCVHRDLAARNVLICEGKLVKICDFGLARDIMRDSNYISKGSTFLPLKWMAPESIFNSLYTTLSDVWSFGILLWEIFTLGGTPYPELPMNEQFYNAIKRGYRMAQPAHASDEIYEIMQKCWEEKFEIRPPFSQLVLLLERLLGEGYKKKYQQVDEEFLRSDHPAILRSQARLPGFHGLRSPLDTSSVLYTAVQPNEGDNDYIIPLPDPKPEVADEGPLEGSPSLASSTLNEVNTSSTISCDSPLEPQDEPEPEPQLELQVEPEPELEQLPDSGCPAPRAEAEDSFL
Thymidylate synthase (Homo sapiens (Human), UniProt P04818), sequence (P04818 whole entry): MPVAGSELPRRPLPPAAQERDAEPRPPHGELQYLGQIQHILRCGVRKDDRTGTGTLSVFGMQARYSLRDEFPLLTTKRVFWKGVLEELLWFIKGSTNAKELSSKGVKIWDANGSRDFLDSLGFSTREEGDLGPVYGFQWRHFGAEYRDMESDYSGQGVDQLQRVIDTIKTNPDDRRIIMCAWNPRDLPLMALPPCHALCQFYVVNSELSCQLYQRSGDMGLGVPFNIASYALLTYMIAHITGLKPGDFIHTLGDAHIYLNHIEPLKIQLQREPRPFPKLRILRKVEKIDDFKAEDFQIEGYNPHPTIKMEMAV
EGFR kinase, sequence (P00533 25-1210): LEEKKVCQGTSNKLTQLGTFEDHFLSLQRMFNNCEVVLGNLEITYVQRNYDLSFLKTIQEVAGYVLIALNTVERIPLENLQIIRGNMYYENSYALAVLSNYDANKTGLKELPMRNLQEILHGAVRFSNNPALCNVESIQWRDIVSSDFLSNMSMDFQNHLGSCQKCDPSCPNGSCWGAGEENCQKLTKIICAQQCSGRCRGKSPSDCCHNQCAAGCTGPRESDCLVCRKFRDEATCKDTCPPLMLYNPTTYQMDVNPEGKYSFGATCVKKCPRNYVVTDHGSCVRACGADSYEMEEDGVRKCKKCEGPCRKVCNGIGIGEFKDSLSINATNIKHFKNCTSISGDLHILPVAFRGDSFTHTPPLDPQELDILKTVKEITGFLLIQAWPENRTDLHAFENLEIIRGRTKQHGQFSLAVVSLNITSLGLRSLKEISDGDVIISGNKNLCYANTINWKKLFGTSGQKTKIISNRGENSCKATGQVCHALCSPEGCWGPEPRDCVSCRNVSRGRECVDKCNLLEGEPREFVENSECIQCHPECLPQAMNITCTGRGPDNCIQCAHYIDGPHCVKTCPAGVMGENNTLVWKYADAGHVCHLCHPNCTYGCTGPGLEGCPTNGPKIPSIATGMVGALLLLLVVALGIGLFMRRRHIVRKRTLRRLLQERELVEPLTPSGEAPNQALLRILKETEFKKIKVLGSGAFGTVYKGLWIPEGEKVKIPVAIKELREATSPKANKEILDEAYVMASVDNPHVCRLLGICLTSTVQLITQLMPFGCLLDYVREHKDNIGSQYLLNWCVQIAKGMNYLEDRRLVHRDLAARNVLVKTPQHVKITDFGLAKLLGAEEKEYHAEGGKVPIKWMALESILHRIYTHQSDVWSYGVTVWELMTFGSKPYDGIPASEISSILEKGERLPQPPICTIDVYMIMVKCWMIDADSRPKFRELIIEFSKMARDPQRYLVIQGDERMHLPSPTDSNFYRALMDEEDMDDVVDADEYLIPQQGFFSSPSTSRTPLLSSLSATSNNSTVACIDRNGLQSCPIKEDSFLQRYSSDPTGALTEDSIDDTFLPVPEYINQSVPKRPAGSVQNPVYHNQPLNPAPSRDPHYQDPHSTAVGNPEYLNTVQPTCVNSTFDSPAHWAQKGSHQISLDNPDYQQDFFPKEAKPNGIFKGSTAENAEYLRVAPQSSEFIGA
Flk-1 kinase, sequence (P35968 20-1356): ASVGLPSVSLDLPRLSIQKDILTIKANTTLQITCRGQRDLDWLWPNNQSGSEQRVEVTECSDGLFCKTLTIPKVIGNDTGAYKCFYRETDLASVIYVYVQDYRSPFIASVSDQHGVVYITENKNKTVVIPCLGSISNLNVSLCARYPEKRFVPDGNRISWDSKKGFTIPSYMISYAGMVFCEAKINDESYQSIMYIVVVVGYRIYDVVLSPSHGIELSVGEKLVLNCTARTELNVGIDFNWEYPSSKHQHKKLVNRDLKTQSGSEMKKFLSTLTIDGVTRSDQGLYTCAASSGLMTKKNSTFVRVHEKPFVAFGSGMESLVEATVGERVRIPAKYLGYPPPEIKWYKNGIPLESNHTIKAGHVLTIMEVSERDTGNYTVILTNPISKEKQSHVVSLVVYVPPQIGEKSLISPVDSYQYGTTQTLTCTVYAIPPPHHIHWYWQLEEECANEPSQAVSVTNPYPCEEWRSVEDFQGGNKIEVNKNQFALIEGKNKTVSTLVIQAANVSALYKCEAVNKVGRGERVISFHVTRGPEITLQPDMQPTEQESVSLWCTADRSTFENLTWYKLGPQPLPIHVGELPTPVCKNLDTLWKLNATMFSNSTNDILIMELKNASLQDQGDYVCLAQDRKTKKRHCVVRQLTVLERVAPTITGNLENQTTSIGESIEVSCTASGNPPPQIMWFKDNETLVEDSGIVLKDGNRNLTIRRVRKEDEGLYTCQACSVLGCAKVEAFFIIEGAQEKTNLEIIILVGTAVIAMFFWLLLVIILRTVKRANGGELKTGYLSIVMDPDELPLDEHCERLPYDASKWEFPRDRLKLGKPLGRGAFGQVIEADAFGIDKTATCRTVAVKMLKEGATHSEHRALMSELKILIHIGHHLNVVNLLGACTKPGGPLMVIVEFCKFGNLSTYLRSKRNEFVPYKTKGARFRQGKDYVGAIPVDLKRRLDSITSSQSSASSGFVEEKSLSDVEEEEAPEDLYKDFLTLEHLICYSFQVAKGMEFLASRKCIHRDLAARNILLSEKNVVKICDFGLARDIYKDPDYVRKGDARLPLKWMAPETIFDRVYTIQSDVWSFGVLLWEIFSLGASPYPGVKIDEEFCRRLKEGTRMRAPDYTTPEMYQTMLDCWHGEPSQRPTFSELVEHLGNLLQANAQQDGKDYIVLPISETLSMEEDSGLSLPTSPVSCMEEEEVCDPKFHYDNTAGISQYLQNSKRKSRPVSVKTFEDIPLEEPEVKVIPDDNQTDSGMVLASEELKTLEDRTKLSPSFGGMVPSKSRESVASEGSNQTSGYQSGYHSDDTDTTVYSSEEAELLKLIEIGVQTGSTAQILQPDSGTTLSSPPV
Thymidylate synthase (Escherichia coli (strain K12), UniProt P0A884), sequence (P0A884 whole entry, looked up): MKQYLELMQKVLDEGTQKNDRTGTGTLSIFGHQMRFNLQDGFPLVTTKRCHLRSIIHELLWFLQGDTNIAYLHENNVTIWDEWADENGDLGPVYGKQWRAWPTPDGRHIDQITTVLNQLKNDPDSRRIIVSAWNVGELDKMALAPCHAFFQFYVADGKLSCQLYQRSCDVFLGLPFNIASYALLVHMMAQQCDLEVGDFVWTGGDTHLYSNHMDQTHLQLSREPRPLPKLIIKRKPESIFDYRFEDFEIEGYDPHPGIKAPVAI
VEGFR-2 kinase, sequence (P35968 20-1356): as the sequence (P35968 20-1356) above

CC(C)c1ccccc1Nc1nc(N)nc2c1-c1ccccc1C2 [AAG145-124]
IC50 ([1]; Table 3, read-out: EGFR kinase): > 200 µM | IC50 [2, 11]: 21.7 µM | IC50 ([3]; Table 3): 126 µM | IC50 [4]: > 200 µM

CC(C)c1ccc(Nc2nc(N)nc3c2-c2ccccc2C3)cc1 [AAG145-126]
IC50 ([1]; Table 3, read-out: EGFR kinase): 42.6 µM | IC50 [2, 11]: 7.8 µM | IC50 ([3]; Table 3): 126 µM | IC50 [4]: 11 µM

Nc1nc2c(c(Nc3cccc(Br)c3)n1)-c1ccccc1C2 [AAG145-131]
IC50 ([1]; Table 3, read-out: EGFR kinase): 24.1 µM | IC50 [2, 11]: 126 µM | IC50 ([3]; Table 3): > 5000 µM | IC50 [4]: > 200 µM

Nc1nc2c(c(Nc3ccc(Cl)cc3F)n1)-c1ccccc1C2 [AAG145-135]
IC50 ([1]; Table 3, read-out: EGFR kinase): 11.7 µM | IC50 ([3]; Table 3): 9.7 µM | IC50 [4]: 197 µM

Nc1nc2c(c(Nc3cccc(Cl)c3)n1)-c1ccccc1C2 [AAG145-157]
IC50 ([1]; Table 3, read-out: EGFR kinase): 19.6 µM | IC50 [2, 11]: > 500 µM | IC50 ([3]; Table 3): 235 µM | IC50 [4]: 134 µM

Nc1nc2c(c(Nc3ccccc3)n1)-c1ccccc1C2 [AAG145-158]
IC50 ([1]; Table 3, read-out: EGFR kinase): > 200 µM | IC50 [2, 11]: 43.1 µM | IC50 ([3]; Table 3): 4.9 µM | IC50 [4]: 171 µM

COc1cccc(Nc2nc(N)nc3c2-c2ccccc2C3)c1 [AAG145-159]
IC50 ([1]; Table 3, read-out: EGFR kinase): > 200 µM | IC50 [2, 11]: 75.5 µM | IC50 ([3]; Table 3): 13.9 µM | IC50 [4]: 43 µM

Nc1nc2c(c(Nc3cccc(F)c3)n1)-c1ccccc1C2 [AAG145-161]
IC50 ([1]; Table 3, read-out: EGFR kinase): > 200 µM | IC50 [2, 11]: 7.1 µM | IC50 ([3]; Table 3): 9.8 µM | IC50 [4]: 55.7 µM

Nc1nc2c(c(Nc3ccc(F)c(Cl)c3)n1)-c1ccccc1C2 [AAG145-164]
IC50 ([1]; Table 3, read-out: EGFR kinase): > 200 µM | IC50 [2, 11]: 6.4 µM | IC50 ([3]; Table 3): 158 µM | IC50 [4]: 72.9 µM

Nc1nc(N)c2c(n1)[nH]c1cccc(Sc3ccccc3)c12 [AAG-148-43, 5-(phenylthio)-9H-pyrimido[4,5-b]indole-2,4-diamine]
IC50 ([1]; Table 1, read-out: EGFR kinase inhibition): 15.1 µM | IC50 [5]: 22.6 µM | IC50 ([2]; Table 1, read-out: PDGFR-β kinase inhibition): 2.8 µM | IC50 ([3]; Table 1): 49.2 µM | IC50 [6]: 0.54 µM | IC50 [7]: > 27 µM | metastasis to the liver of COLO-205 cells [8, 12]: significantly reduced metastasis to the liver | vascularity of COLO-205 primary tumors [8, 12]: reduced vascularity much better than DMBI | primary tumor growth of COLO-205 ([8]; athymic mice, 25 mg/kg three times a week): significantly reduced the growth | apparent toxicity (loss in weight of the animals) ([8]; mice, 25 mg/kg three times weekly): no apparent toxicity

Cc1ccc(Sc2cccc3[nH]c4nc(N)nc(N)c4c23)cc1 [AAG-148-311, 5-[(4-methylphenyl)thio]-9H-pyrimido[4,5-b]indole-2,4-diamine]
IC50 [6]: 0.39 µM | IC50 [9]: 0.18 µM

Nc1nc2[nH]cc(CCc3ccc(C(=O)N[C@@H](CCC(=O)O)C(=O)O)cc3)c2c(=O)[nH]1 [Pemetrexed, reference compound]
IC50 [6]: 29 µM | IC50 ([7]; E. coli TS, read-out: Thymidylate synthase inhibition E. coli): 15 µM

Cc1cc(C)c(/C=C2\C(=O)Nc3ccccc32)[nH]1 [SU5416, reference compound]
IC50 ([3]; Table 3): […] | IC50 [10]: 0.032 ± 0.005 µM
